From US10548993B2, “Metal-encapsulated carbonaceous dots” (UNIVERSITY OF GEORGIA RESEARCH FOUNDATION, INC., priority 2014, dated 2020)

Assays:
U87MG cells = assay: Cytotoxicity study, MTT assay with 2.5 mM Ca(II); format: cell-based, human; conditions: 24 h
Protocol: Gd@C-dots were also subjected to a cytotoxicity study with U87MG cells using standard MTT assays. The cells were first seeded in 96-well plates (1×10^4 cells per well). After 24 h, Gd@C-dots at different concentrations were added. Incubation was carried out for 24 h with or without 2.5 mM CaCl2. To assess the particles' stability against transmetallation, which is the major cause of toxicity for conventional Gd contrast agents (Corot et al., J. Magn. Reson. Imaging 1998, 8(3):695-702), 2.5 mM Ca(II) was added into the incubation medium.

[1] = comparison value for Gd-DTPA, literature references; cited from earlier work

## CNC[C@H](O)[C@@H](O)[C@H](O)[C@H](O)CO.CNC[C@H](O)[C@@H](O)[C@H](O)[C@H](O)CO.O=C([O-])CN(CCN(CC(=O)[O-])CC(=O)O)CCN(CC(=O)[O-])CC(=O)O.[Gd+3] [Gd-DTPA, gadopentetic acid]
U87MG cells
  IC50 (cell death): 33.1 mg/L
[1]
  r1 relaxivity: 3.10 mM⁻¹ s⁻¹
